# Data published in ChEMBL document CHEMBL4602659, “β,β-Dimethylacrylshikonin Induces Apoptosis in Melanoma Cell Lines by NOXA Upregulation” (J Nat Prod, 2020).
# The source made the active and inactive calls. The rule behind the calls is not given here.
# Tests used:
# MUGMel2 [1] = experiment: Cytotoxicity against human MUGMel2 cells harboring NRAS pQ61K mutant assessed as reduction in cell viability after 24 hrs by EZ4U reagent based spectrophotometric method; format: functional; conditions: MUGMel2, 24 h
# WM164 [2] = experiment: Cytotoxicity against human WM164 cells harboring BRAF V600E mutant assessed as reduction in cell viability after 48 hrs by EZ4U reagent based spectrophotometric method; format: functional; conditions: WM164, 48 h
# WM793 [3] = experiment: Cytotoxicity against human WM793 cells harboring BRAF V600E mutant assessed as reduction in cell viability after 48 hrs by EZ4U reagent based spectrophotometric method; format: functional; conditions: WM793, 48 h
# WM793 [4] = experiment: Cytotoxicity against human WM793 cells harboring BRAF V600E mutant assessed as reduction in cell viability after 72 hrs by EZ4U reagent based spectrophotometric method; format: functional; conditions: WM793, 72 h
# MRC5 = experiment: Cytotoxicity against human MRC5 cells assessed as reduction in cell viability after 72 hrs by EZ4U reagent based spectrophotometric method; format: functional
# MUGMel2 [5] = experiment: Induction of apoptosis in human MUGMel2 cells assessed as necrotic cells at IC50 concentration after 6 hrs by Annexin V/SYTOX Green based flow cytometric analysis (reference value: 0.3%); format: functional
# SBcl2 [6] = experiment: Induction of apoptosis in human SBcl2 cells assessed as late apoptotic cells at IC50 concentration after 6 hrs by Annexin V/SYTOX Green based flow cytometric analysis (reference value: 14.91%); format: functional
# WM164 [7] = experiment: Induction of apoptosis in human WM164 cells assessed as necrotic cells at IC50 concentration after 6 hrs by Annexin V/SYTOX Green based flow cytometric analysis (reference value: 0.81%); format: functional
# WM793 [8] = experiment: Induction of apoptosis in human WM793 cells assessed as viable cells at IC50 concentration after 6 hrs by Annexin V/SYTOX Green based flow cytometric analysis (reference value: 96.2%); format: functional
# MUGMel1 [9] = experiment: Induction of apoptosis in human MUGMel1 cells assessed as viable cells at IC50 concentration after 24 hrs by Annexin V/SYTOX Green based flow cytometric analysis (reference value: 95.13%); format: functional
# MUGMel1 [10] = experiment: Induction of apoptosis in human MUGMel1 cells assessed as early apoptotic cells at IC50 concentration after 24 hrs by Annexin V/SYTOX Green based flow cytometric analysis (reference value: 3.27%); format: functional
# MUGMel2 [11] = experiment: Induction of apoptosis in human MUGMel2 cells assessed as necrotic cells at IC50 concentration after 24 hrs by Annexin V/SYTOX Green based flow cytometric analysis (reference value: 1.1%); format: functional
# WM164 [12] = experiment: Induction of apoptosis in human WM164 cells assessed as late apoptotic cells at IC50 concentration after 24 hrs by Annexin V/SYTOX Green based flow cytometric analysis (reference value: 1.81%); format: functional
# WM164 [13] = experiment: Induction of apoptosis in human WM164 cells assessed as necrotic cells at IC50 concentration after 24 hrs by Annexin V/SYTOX Green based flow cytometric analysis (reference value: 0.85%); format: functional
# WM793 [14] = experiment: Induction of apoptosis in human WM793 cells assessed as viable cells at IC50 concentration after 24 hrs by Annexin V/SYTOX Green based flow cytometric analysis (reference value: 96.52%); format: functional
# WM793 [15] = experiment: Induction of apoptosis in human WM793 cells assessed as late apoptotic cells at IC50 concentration after 24 hrs by Annexin V/SYTOX Green based flow cytometric analysis (reference value: 0.66%); format: functional
# [16] = Cytotoxicity against human A375-S2 cells assessed as reduction in cell viability after 48 hrs by MTT assay; format: functional, cell-based; conditions: A375-S2, 48 h
# MUGMel2 [17] = experiment: Induction of apoptosis in human MUGMel2 cells assessed as increase in caspase -3 activity at IC50 concentration after 24 hrs by Alexa Fluor 647 antibody based flow cytometric analysis; format: functional, cell-based
# WM793 [18] = experiment: Induction of apoptosis in human WM793 cells assessed as increase in caspase -3 activity at IC50 concentration after 24 hrs by Alexa Fluor 647 antibody based flow cytometric analysis; format: functional, cell-based
# MUGMel1 [19] = experiment: Induction of cell cycle arrest in human MUGMel1 cells assessed as increase in S phase at IC50 concentration after 24 to 48 hrs by propidium iodide staining based flow cytometric analysis; format: functional
# WM164 [20] = experiment: Induction of apoptosis in human WM164 cells assessed as up regulation of PMAIP1 at IC50 concentration after 24 hrs by mRNA sequencing method relative to control; format: functional
# WM164 [21] = experiment: Antitumour activity against human WM164 cells xenografted in NU(NCr)-Foxn1 mouse assessed as increase in caspase -activity at 1 to 4 ug/g administered for three consecutive days with 1 day interval for four cycle by hematoxylin and eosin staining based microscopic analysis; format: functional, cell-based
# SBcl2 [22] = experiment: Induction of apoptosis in human SBcl2 cells assessed as up regulation of NOXA protein expression at IC50 concentration after 24 hrs by Western blot analysis; format: functional, cell-based
# SBcl2 [23] = experiment: Induction of apoptosis in human SBcl2 cells assessed as effect on BAX mRNA expression at IC50 concentration after 6 to 24 hrs by RT-qPCR analysis; format: functional, cell-based
# SBcl2 [24] = experiment: Induction of apoptosis in human SBcl2 cells assessed as effect on BAD mRNA expression at IC50 concentration after 6 to 24 hrs by RT-qPCR analysis; format: functional, cell-based
# MUGMel2 [25] = experiment: Induction of apoptosis in human MUGMel2 cells assessed as effect on BAX mRNA expression at IC50 concentration after 6 to 24 hrs by RT-qPCR analysis; format: functional, cell-based
# MUGMel1 [26] = experiment: Induction of apoptosis in human MUGMel1 cells assessed as effect on BAD mRNA expression at IC50 concentration after 6 to 24 hrs by RT-qPCR analysis; format: functional, cell-based
# SBcl2 [27] = experiment: Induction of apoptosis in human SBcl2 cells treated with scrambled si-RNA assessed as caspase -activity at IC50 concentration after 24 hrs by Western blot analysis; format: functional, cell-based
# SBcl2 [28] = experiment: Induction of apoptosis in human SBcl2 cells treated with scrambled si-RNA assessed as up regulation of NOXA protein expression at IC50 concentration after 24 hrs by Western blot analysis; format: functional, cell-based
# WM793 [29] = experiment: Induction of apoptosis in human WM793 cells assessed as effect on PUMA protein expression at IC50 concentration after 24 hrs by Western blot analysis; format: functional, cell-based
# WM793 [30] = experiment: Induction of apoptosis in human WM793 cells assessed as effect on BAX protein expression at IC50 concentration after 24 hrs by Western blot analysis; format: functional, cell-based
# WM164 [31] = experiment: Induction of apoptosis in human WM164 cells assessed as effect on PUMA protein expression at IC50 concentration after 24 hrs by Western blot analysis; format: functional, cell-based
# SBcl2 [32] = experiment: Induction of apoptosis in human SBcl2 cells assessed as effect on BAX protein expression at IC50 concentration after 24 hrs by Western blot analysis; format: functional, cell-based
# MUGMel2 [33] = experiment: Induction of apoptosis in human MUGMel2 cells assessed as effect on BAX protein expression at IC50 concentration after 24 hrs by Western blot analysis; format: functional, cell-based
# SBcl2 [34] = experiment: Antitumour activity against human SBcl2 cells xenografted in NU(NCr)-Foxn1 mouse assessed as decrease in tumour size at 2 ug/g administered for three consecutive days with 1 day interval for four cycle; format: functional, cell-based
compound,measurement,setting,value
CC(C)=CC[C@@H](OC(=O)C=C(C)C)C1=CC(=O)c2c(O)ccc(O)c2C1=O [DIMETHYLACRYLSHIKONIN],IC50,MUGMel2 [1],5100 nM
same,IC50,WM164 [2],3000 nM
same,IC50,WM793 [3],800 nM
same,IC50,WM793 [4],700 nM
same,IC50,MRC5,Not Active
same,Activity,MUGMel2 [5],0.39%
same,Activity,SBcl2 [6],70.21%
same,Activity,WM164 [7],0.24%
same,Activity,WM793 [8],88.54%
same,Activity,MUGMel1 [9],49.48%
same,Activity,MUGMel1 [10],40.28%
same,Activity,MUGMel2 [11],0.16%
same,Activity,WM164 [12],11.6%
same,Activity,WM164 [13],0.52%
same,Activity,WM793 [14],83.29%
same,Activity,WM793 [15],2.78%
same,IC50,[16],7100 nM
same,Activity,MUGMel2 [17],Active
same,Activity,WM793 [18],Active
same,Activity,MUGMel1 [19],Active
same,fold change (FC),WM164 [20],1.6
same,Activity,WM164 [21],Active
same,Activity,SBcl2 [22],Active
same,Activity,SBcl2 [23],inactive
same,Activity,SBcl2 [24],inactive
same,Activity,MUGMel2 [25],inactive
same,Activity,MUGMel1 [26],inactive
same,Activity,SBcl2 [27],inactive
same,Activity,SBcl2 [28],Active
same,Activity,WM793 [29],inactive
same,Activity,WM793 [30],inactive
same,Activity,WM164 [31],inactive
same,Activity,SBcl2 [32],inactive
same,Activity,MUGMel2 [33],inactive
same,Activity,SBcl2 [34],inactive
